From patent US20220339135A1, “COMPOSITIONS AND METHODS FOR MODULATING AN INFLAMMATORY RESPONSE” (Enzychem Lifesciences Corporation, priority 2019, published 2022)
Read-outs that look alike come from different tables or passages of the source.

Tests used:
[1] = system: chemoradiation-induced oral mucositis
[2] = system: P2Y6 receptor on THP-1 cells; assay: MSU-induced P2Y6 receptor trafficking; format: cell-based, human
Procedure: THP-1 cells were divided into two groups: 1) MSU treated group and 2) MSU/PLAG treated group. For MSU treated group, THP-1 cells were stimulated with monosodium urate (MSU) crystal (400 μg/ml) for 0, 10, 20, 30, 40, 50, 60 minutes. For MSU/PLAG treated group, THP-1 cells were pre-incubated with PLAG (100 μg/ml) for an hour and then stimulated with monosodium urate (MSU) crystal (400 μg/ml) for 0, 10, 20, 30, 40, 50, 60 minutes. Then, cells were harvested. (A) To detect for the P2Y6 receptor on the membrane surface, cells were fixed with 4% paraformaldehyde (Sigma-Aldrich) and incubated with PBS containing 1% BSA for blocking. They were labeled with the rabbit anti-P2Y6 receptor antibody (1:200, APR-011, Alomone Labs, Jerusalem, Israel) for 1 h. The detection Ab was used with Alexa Flour 488 goat anti-rabbit IgG (Invitrogen). (B) To detect lysosomal activity, THP-1 cells were stained with Texas red conjugated-LYSO-ID® Lysosomal Detection Kit (Enzo Life Sciences, Inc.). Finally, cells were washed with 1% FBS/PBS and mounted with DAPI-containing fluorescence microscopy mounting medium (Invitrogen). Confocal samples were analyzed with a laser scanning confocal microscope (Carl Zeiss, Oberkochen, Germany). For flow cytometric analysis, cells were washed and analyzed with a FACSVerse flow cytometer (BD Biosciences). FlowJo software (Tree Star, OR, USA) was used data processing.
The specific siRNA of CD36 (sc-29995) and control siRNA (sc-37007) were purchased from Santa Cruz Biotechnology. Cells were transfected with 50 nM of either the targeting or control siRNA using HiPerFect Transfection Reagent (Qiagen, Hilden, Germany) for 24 h. The knockdown efficiency of siRNAs was confirmed by Western blot analysis.
THP-1 cells were pre-incubated with PLAG (100 μg/ml) for 1 hour and then stimulated with MSU crystal (400 μg/ml). After 15, 30, 60 min, cells were harvested. […] For flow cytometric analysis, cells were washed with 1% FBS/PBS and analyzed with a FACSVerse flow cytometer (BD Biosciences). […]

[3] = system: intracellular lysosomes of Raw264.7 cells; assay: LPS-induced lysosomal activity (LYSO-ID); format: cell-based; settings: LPS/PLAG treatment
Procedure: Raw264.7 cells were divided into two groups: 1) LPS treated group and 2) LPS/PLAG treated group. For the LPS treated group, cells were treated with 100 μg/ml of DMSO (as solvent control) for 1 hour and treated with LPS (100 ng/ml) for 15, 30, 60, and 120 minutes. For LPS/PLAG treated group, cells were treated with PLAG (100 μg/ml) for 1 hour and treated with LPS (100 ng/ml) for 15, 30, 60, and 120 minutes. Cells were then fixed and stained using rat anti-TLR4/MD2 antibody with Alexa488-conjugated anti-rat IgG secondary antibody. These were analyzed by confocal microscopy. Raw264.7 cells stimulated under the same conditions were fixed, permeabilized, and stained with CM-H2DCFDA, the LYSO-ID® Lysosomal Detection Kit and rabbit anti-p47phox. Confocal microscopy was performed; all data shown represent one experiment performed in triplicate.

[4] = Day 9, ChemoRT + PLAG 250 mg/kg

Question: `CCCCC/C=C\C/C=C\CCCCCCCC(=O)OC(COC(C)=O)COC(=O)CCCCCCCCCCCCCCC` (racemic) [PLAG, 1-palmitoyl-2-linoleoyl-3-acetylglycerol] was tested. Which “body weight Day 9” value ([1]; ChemoRT + PLAG 100 mg/kg) did it give?
Answer: 23.98 ± 2.80 g

Question: What about the “oral mucosa epithelial thickness” value ([1]; ChemoRT + PLAG 100 mg/kg) of the same compound?
Answer: 58.06±24.97 μm

Question: What about the ulceration area percentage ([1]; ChemoRT + PLAG 100 mg/kg) of the same compound?
Answer: 29.32±5.40%

Question: What about the “CXCL2 mRNA expression in tongues (relative band intensity)” value ([1]; ChemoRT + PLAG 250 mg/kg) of the same compound?
Answer: 0.23±0.48 AU

Question: And the “IL-6 in tongue tissue extracts” value ([1]; ChemoRT + PLAG 250 mg/kg)?
Answer: 8.13 ± 1.19 pg/mg

Question: And the “IL-6 mRNA expression in tongues (relative band intensity)” value ([1]; ChemoRT + PLAG 250 mg/kg)?
Answer: 1.34±1.06 AU

Question: What about the “MIP-2 in tongue tissue extracts” value ([1]; ChemoRT + PLAG 250 mg/kg) of the same compound?
Answer: 2.69 ± 0.38 pg/mg

Question: And the “body weight Day 9” value ([1]; ChemoRT + PLAG 250 mg/kg)?
Answer: 26.46 ± 1.68 g

Question: What about the “oral mucosa epithelial thickness” value ([1]; ChemoRT + PLAG 250 mg/kg) of the same compound?
Answer: 85.81±12.24 μm

Question: And the ulceration area percentage ([1]; ChemoRT + PLAG 250 mg/kg)?
Answer: 1.45±2.36%

Question: What about the “P-MLKL relative band intensity in tongue lysates” value ([1]; ChemoRT+PLAG) of the same compound?
Answer: 3.67±2.56 AU

Question: And the “P-RIPK1 relative band intensity in tongue lysates” value ([1]; ChemoRT+PLAG)?
Answer: 0.61±0.45 AU

Question: What about the “P-RIPK3 relative band intensity in tongue lysates” value ([1]; ChemoRT+PLAG) of the same compound?
Answer: 1.27±0.83 AU

Question: What about the “body weight Day 0” value ([1]; ChemoRT+PLAG) of the same compound?
Answer: 25.78 ± 1.04 g

Question: And the “neutrophil infiltration in the tongues (IHC NIMP-R14)” value ([1]; ChemoRT+PLAG)?
Answer: not observed

Question: And the “serum IL-6” value [1, 4]?
Answer: 205.75 ± 30.41 pg/mL

Question: What about the “serum MIP-2” value [1, 4] of the same compound?
Answer: 4.42 ± 4.04 pg/mL

Question: And the “HMGB1 localization in tongue (IHC)” value ([1]; PLAG-treated mice)?
Answer: remained in the nucleus

Question: And the “body weight Day 9” value ([1]; mouse, in vivo)?
Answer: 25.66 ± 0.70 g

Question: And the P2Y6 endocytosis initiates ([2]; MSU/PLAG treated cells)?
Answer: about 10 minutes

Question: And the “P2Y6 returned to the surface” value ([2]; MSU/PLAG treated cells)?
Answer: about 30 minutes

Question: What about the “promotion of P2Y6 receptor endocytosis (flow cytometry)” value ([2]; control and CD36 silenced cells) of the same compound?
Answer: still observed

Question: What about the lysosomal activity initiated [3] of the same compound?
Answer: 15 min

Question: And the “return to homeostatic levels of lysosomal activity” value [3]?
Answer: 60 min
